Test results reported in PubChem BioAssay AID2060894 (Molecular Pharmacology Branch, DTP, NCI, 2025).
Values belong to the molecule of their own block, whether it stands above or below them.

System: K12877-001-R-J1-PDC complex spheroid viability
Assay: Anticancer human tumor K12877-001-R-J1-PDC patient-derived lung adenocarcinoma cell line growth inhibition [RAS]
Conditions: for IC50: curve of first compound; for viability, T/C: stronger effect = lower value
Outline: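 Tumour cells grown as complex spheroids with HUVEC endothelial cells and mesenchymal stem cells, treated with RAS pathway inhibitor combinations. Each agent spans half-log steps from near clinical Cmax, or 10 microM where Cmax is unknown.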

[1] = second compound 0.000949 µM, first compound 0.0316 µM
[2] = second compound 0.000949 µM, first compound 0.1 µM
[3] = second compound 0.000949 µM, first compound 0.316 µM
[4] = second compound 0.000949 µM, first compound 1 µM
[5] = second compound 0.000949 µM, first compound 3.16 µM
[6] = second compound 0.000949 µM, first compound 10 µM
[7] = second compound 0.003 µM, first compound 0.0316 µM
[8] = second compound 0.003 µM, first compound 0.1 µM
[9] = second compound 0.003 µM, first compound 0.316 µM
[10] = second compound 0.003 µM, first compound 1 µM
[11] = second compound 0.003 µM, first compound 3.16 µM
[12] = second compound 0.003 µM, first compound 10 µM
[13] = second compound 0.00949 µM, first compound 0.0316 µM
[14] = second compound 0.00949 µM, first compound 0.1 µM
[15] = second compound 0.00949 µM, first compound 0.316 µM
[16] = second compound 0.00949 µM, first compound 1 µM
[17] = second compound 0.00949 µM, first compound 3.16 µM
[18] = second compound 0.00949 µM, first compound 10 µM
[19] = second compound 0.03 µM, first compound 0.0316 µM
[20] = second compound 0.03 µM, first compound 0.1 µM
[21] = second compound 0.03 µM, first compound 0.316 µM
[22] = second compound 0.03 µM, first compound 1 µM
[23] = second compound 0.03 µM, first compound 3.16 µM
[24] = second compound 0.03 µM, first compound 10 µM
[25] = second compound 0.0949 µM, first compound 0.0316 µM
[26] = second compound 0.0949 µM, first compound 0.1 µM
[27] = second compound 0.0949 µM, first compound 0.316 µM
[28] = second compound 0.0949 µM, first compound 1 µM
[29] = second compound 0.0949 µM, first compound 3.16 µM
[30] = second compound 0.0949 µM, first compound 10 µM
[31] = second compound 0.3 µM, first compound 0.0316 µM
[32] = second compound 0.3 µM, first compound 0.1 µM
[33] = second compound 0.3 µM, first compound 0.316 µM
[34] = second compound 0.3 µM, first compound 1 µM
[35] = second compound 0.3 µM, first compound 3.16 µM
[36] = second compound 0.3 µM, first compound 10 µM
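Also: spheroids exposed to agents for one week before readout.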
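For viability, T/C in this document: tumour cells co-cultured with HUVEC and mesenchymal stem cells in spheroids.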

- IC50 (second compound 0.000949 µM): 1.3 µM
- IC50 (second compound 0.003 µM): 1.02 µM
- IC50 (second compound 0.00949 µM): 0.877 µM
- IC50 (second compound 0.03 µM): 0.903 µM
- IC50 (second compound 0.0949 µM): 0.808 µM
- IC50 (second compound 0.3 µM): 0.508 µM
SMILES: CCC(CC)c1cc(NC2CCC(N)C2)n2nccc2n1 (centres undefined) + CCn1c(-c2cccnc2C(C)OC)c2c3cc(ccc31)N1CCOC(CC(NC(=O)C(C(C)C)N(C)C(=O)C3(F)CCN(C(=O)C#CC(C)(C)N(C)C)CC3)C(=O)N3CCCC(N3)C(=O)OCC(C)(C)C2)C1
- viability, T/C [1]: 78.9%
- viability, T/C [2]: 83.2%
- viability, T/C [3]: 80.2%
- viability, T/C [4]: 64.3%
- viability, T/C [5]: 1.95%
- viability, T/C [6]: 0.98%
- viability, T/C [7]: 72%
- viability, T/C [8]: 85.8%
- viability, T/C [9]: 72.8%
- viability, T/C [10]: 51%
- viability, T/C [11]: 1.27%
- viability, T/C [12]: 1.35%
- viability, T/C [13]: 85.2%
- viability, T/C [14]: 70.9%
- viability, T/C [15]: 69.5%
- viability, T/C [16]: 48%
- viability, T/C [17]: 1.95%
- viability, T/C [18]: 0.75%
- viability, T/C [19]: 74%
- viability, T/C [20]: 70.5%
- viability, T/C [21]: 69.2%
- viability, T/C [22]: 48%
- viability, T/C [23]: 1.63%
- viability, T/C [24]: 1.21%
- viability, T/C [25]: 83.6%
- viability, T/C [26]: 70.2%
- viability, T/C [27]: 75%
- viability, T/C [28]: 44.2%
- viability, T/C [29]: 1.61%
- viability, T/C [30]: 1.11%
- viability, T/C [31]: 76.8%
- viability, T/C [32]: 69.9%
- viability, T/C [33]: 61.7%
- viability, T/C [34]: 33.5%
- viability, T/C [35]: 1.98%
- viability, T/C [36]: 0.91%

- IC50 (second compound 0.000949 µM): 0.931 µM
- IC50 (second compound 0.003 µM): 0.472 µM
- IC50 (second compound 0.00949 µM): 0.312 µM
- IC50 (second compound 0.03 µM): 0.571 µM
- IC50 (second compound 0.0949 µM): 0.172 µM
- IC50 (second compound 0.3 µM): 0.0817 µM
SMILES: CC(Nc1ccc2c(c1)OCCn1cc(N3C(=O)OCC3C(F)F)nc1-2)C(N)=O (centres undefined) + CCn1c(-c2cccnc2C(C)OC)c2c3cc(ccc31)N1CCOC(CC(NC(=O)C(C(C)C)N(C)C(=O)C3(F)CCN(C(=O)C#CC(C)(C)N(C)C)CC3)C(=O)N3CCCC(N3)C(=O)OCC(C)(C)C2)C1
- viability, T/C [1]: 73.5%
- viability, T/C [2]: 69.8%
- viability, T/C [3]: 55.3%
- viability, T/C [4]: 51.5%
- viability, T/C [5]: 37.5%
- viability, T/C [6]: 19.3%
- viability, T/C [7]: 74.8%
- viability, T/C [8]: 66.8%
- viability, T/C [9]: 48%
- viability, T/C [10]: 40.3%
- viability, T/C [11]: 44%
- viability, T/C [12]: 19.2%
- viability, T/C [13]: 76.6%
- viability, T/C [14]: 53.7%
- viability, T/C [15]: 50.7%
- viability, T/C [16]: 43.6%
- viability, T/C [17]: 34%
- viability, T/C [18]: 22.3%
- viability, T/C [19]: 65.8%
- viability, T/C [20]: 62.9%
- viability, T/C [21]: 55.2%
- viability, T/C [22]: 44.8%
- viability, T/C [23]: 30.5%
- viability, T/C [24]: 16.1%
- viability, T/C [25]: 66.8%
- viability, T/C [26]: 52%
- viability, T/C [27]: 44.6%
- viability, T/C [28]: 34.4%
- viability, T/C [29]: 28%
- viability, T/C [30]: 13.4%
- viability, T/C [31]: 65.5%
- viability, T/C [32]: 41.2%
- viability, T/C [33]: 35.7%
- viability, T/C [34]: 28.1%
- viability, T/C [35]: 21.8%
- viability, T/C [36]: 8.8%
